Reference: ChEMBL document CHEMBL6109079, “Discovery of novel pyrimidinetrione derivatives as DprE1 inhibitors with potent antimycobacterial activities” (Eur J Med Chem, 2025)
≈ marks a conversion by molar mass, not a printed value.

What was measured:
[1] = Inhibition of DprE1 (unknown origin) preincubated with FAD followed by compound addition and measured after 2 mins by fluorescence based microplate reader; set-up: species or system Bacteria
[2] = Selectivity index, ratio of CC50 for cytotoxicity against human THP-1 cells to MIC50 for antibacterial activity against Mycobacterium tuberculosis H37Ra; type: toxicity, cell-based; settings: read-out: Selectivity Index
[3] = Cytotoxicity against human THP-1 cells assessed as reduction in cell viability incubated for 24 hrs by CCK-8 assay; type: toxicity, cell-based
[4] = test system: Mycobacterium tuberculosis; experiment: Antibacterial activity against Mycobacterium tuberculosis H37Ra assessed as inhibition of bacterial growth at 50 uM incubated for 3 weeks by absorbance based microplate reader relative to control; type: functional; settings: 504 h
[5] = Cytotoxicity against human THP-1 cells assessed as cell viability at 200 uM incubated for 24 hrs by CCK-8 assay relative to control; type: toxicity, cell-based; settings: read-out: Activity
[6] = test system: Mycobacterium tuberculosis; experiment: Antibacterial activity against Mycobacterium tuberculosis H37Ra assessed as inhibition of bacterial growth at 10 uM incubated for 3 weeks by absorbance based microplate reader relative to control; type: functional; settings: 504 h
[7] = test system: Mycobacterium tuberculosis; experiment: Antibacterial activity against Mycobacterium tuberculosis H37Ra assessed as inhibition of bacterial growth incubated for 1 weeks by absorbance based microplate reader; type: functional; settings: 168 h
[8] = test system: Mycobacterium tuberculosis; experiment: Antibacterial activity against Mycobacterium tuberculosis H37Rv assessed as inhibition of bacterial growth at 10 uM incubated for 3 weeks by absorbance based microplate reader relative to control; type: functional; settings: 504 h
[9] = Binding affinity to recombinant DprE1 (unknown origin) assessed as dissociation constant incubated for 10 mins by MST analysis; set-up: species or system Bacteria
[10] = test system: Mycobacterium tuberculosis; experiment: Antibacterial activity against Mycobacterium tuberculosis H37Ra infected in PMA-differentiated human THP-1 cells assessed as reduction in colony forming units measured after 3 weeks by absorbance based assay; type: functional, organism-based; settings: dose 10-100 µM
[11] = target: T1, Decaprenylphosphoryl-beta-D-ribose oxidase (Mycobacterium smegmatis (strain ATCC 700084 / mc(2)155), UniProt A0R607); experiment: Binding affinity to full length N-terminal 6his-tagged Mycobacterium smegmatis ATCC 607 DprE1 extracted from Escherichia coli BL21 assessed as dissociation constant incubated for 10 mins; set-up: species or system Mycolicibacterium smegmatis
T1 sequence (A0R607 whole entry): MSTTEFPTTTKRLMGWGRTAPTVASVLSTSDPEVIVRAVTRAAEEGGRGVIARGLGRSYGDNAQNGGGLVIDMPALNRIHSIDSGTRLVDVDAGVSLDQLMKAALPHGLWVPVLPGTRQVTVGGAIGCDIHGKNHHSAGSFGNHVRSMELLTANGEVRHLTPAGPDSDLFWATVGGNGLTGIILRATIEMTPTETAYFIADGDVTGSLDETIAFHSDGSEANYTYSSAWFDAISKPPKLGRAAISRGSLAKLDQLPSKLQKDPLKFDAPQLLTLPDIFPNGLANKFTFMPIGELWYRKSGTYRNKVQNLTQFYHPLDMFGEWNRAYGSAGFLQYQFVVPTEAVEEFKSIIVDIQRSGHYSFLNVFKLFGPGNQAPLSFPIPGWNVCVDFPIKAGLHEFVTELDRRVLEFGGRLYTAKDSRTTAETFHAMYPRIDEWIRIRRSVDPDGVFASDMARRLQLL

O=C(CO)NN/C=C1\C(=O)NC(=O)N(Cc2ccccc2)C1=O
IC50 [1]: > 100 µM

C=CCN1C(=O)C(=CNNC(=O)c2ccncc2)C(=O)N(CC=C)C1=O
selectivity ratio [2]: > 69.2
CC50 at 24 h [3]: > 200 µM
inhibition at 50 µM [4]: 100%
IC50 [1]: > 100 µM
viability at 24 h, 200 µM [5]: 100%
inhibition at 10 µM [6]: 100%
MIC50 [7]: 2.89 µM (≈ 1.03 µg/mL)
inhibition at 10 µM [8]: 100%

O=C1NC(=O)N(CCO)C(=O)/C1=C/NNC(=O)c1ccncc1
selectivity ratio [2]: > 166
CC50 at 24 h [3]: > 200 µM
inhibition at 50 µM [4]: 100%
IC50 [1]: 45.7 µM
Kd [9]: 135 nM
viability at 24 h, 200 µM [5]: 100%
inhibition at 10 µM [6]: 100%
MIC50 [7]: 1.2 µM (≈ 0.384 µg/mL)
Activity [10]: Dose-dependent-effect
inhibition at 10 µM [8]: 100%

C=CCN1C(=O)NC(=O)/C(=C\NNC(=O)c2ccncc2)C1=O
Kd [11]: 2.5 nM
IC50 [1]: 54.6 µM
Kd [9]: 25 nM

CC(=O)Nc1cccc(C(=O)NN/C=C2\C(=O)NC(=O)N(Cc3ccccc3)C2=O)c1
IC50 [1]: 20.7 µM

C=CCN1C(=O)NC(=O)/C(=C\NNC(=O)c2cccc3ncccc23)C1=O
IC50 [1]: 11.1 µM

Nc1cccc(C(=O)NN/C=C2\C(=O)NC(=O)N(Cc3ccccc3)C2=O)c1
IC50 [1]: 4.36 µM

O=C1NC(=O)N(Cc2ccccc2)C(=O)/C1=C/NNC(=O)c1ccccc1
IC50 [1]: 7.25 µM

O=C1NC(=O)N(Cc2ccccc2)C(=O)/C1=C/NNC(=O)c1ccc2ccccc2c1
IC50 [1]: 10.8 µM

CCN1C(=O)NC(=O)/C(=C\NNC(=O)c2ccncc2)C1=O
selectivity ratio [2]: > 147
CC50 at 24 h [3]: > 200 µM
inhibition at 50 µM [4]: 100%
IC50 [1]: 52.3 µM
viability at 24 h, 200 µM [5]: 100%
inhibition at 10 µM [6]: 100%
MIC50 [7]: 1.36 µM (≈ 0.414 µg/mL)
inhibition at 10 µM [8]: 100%

O=C1NC(=O)N(Cc2ccccc2)C(=O)/C1=C/NNC(=O)c1cccc2ccccc12
IC50 [1]: 23.3 µM

O=C1NC(=O)N(Cc2ccccc2)C(=O)/C1=C/NNC(=O)c1ccc(Cl)cc1
IC50 [1]: 23.9 µM

O=C1NC(=O)N(Cc2ccccc2)C(=O)/C1=C/NNC(=O)c1cccc(Cl)c1
IC50 [1]: 24.3 µM

O=C(Cc1ccccc1)NN/C=C1\C(=O)NC(=O)N(Cc2ccccc2)C1=O
IC50 [1]: 12.3 µM

O=C1NC(=O)N(C2CCCCC2)C(=O)/C1=C/NNC(=O)c1ccncc1
selectivity ratio [2]: > 37.5
CC50 at 24 h [3]: > 200 µM
inhibition at 50 µM [4]: 100%
IC50 [1]: 16.7 µM
viability at 24 h, 200 µM [5]: 100%
inhibition at 10 µM [6]: 100%
MIC50 [7]: 5.34 µM (≈ 1.91 µg/mL)
inhibition at 10 µM [8]: 100%

O=C1NC(=O)N(c2ccccc2)C(=O)/C1=C/NNC(=O)c1cccnc1
IC50 [1]: 32.1 µM

O=C1NC(=O)N(C2CCCCC2)C(=O)/C1=C/NNC(=O)c1cccnc1
IC50 [1]: 30.4 µM

O=C1NC(=O)N(Cc2ccccc2)C(=O)/C1=C/NNC(=O)c1ccncc1
selectivity ratio [2]: > 63.5
CC50 at 24 h [3]: > 200 µM
inhibition at 50 µM [4]: 100%
IC50 [1]: 10.2 µM
viability at 24 h, 200 µM [5]: 100%
inhibition at 10 µM [6]: 100%
MIC50 [7]: 3.15 µM (≈ 1.15 µg/mL)
inhibition at 10 µM [8]: 100%

O=C(CCl)NN/C=C1\C(=O)NC(=O)N(Cc2ccccc2)C1=O
IC50 [1]: > 100 µM

O=C1NC(=O)N(C2CC2)C(=O)/C1=C/NNC(=O)c1ccnc2ccccc12
IC50 [1]: 14.3 µM

O=C1NC(=O)N(Cc2ccccc2)C(=O)/C1=C/NNC(=O)c1cccc(O)c1
IC50 [1]: 6.49 µM

COc1ccc(C(=O)NN/C=C2\C(=O)NC(=O)N(Cc3ccccc3)C2=O)cc1
IC50 [1]: 3.03 µM

O=C1NC(=O)N(Cc2ccccc2)C(=O)/C1=C/NNC(=O)c1cccnc1
IC50 [1]: 28.8 µM
